Data published in patent US20100120690A1, “Polypeptides Having Antimicrobial Activity and Polynucleotides Encoding Same” (Novozymes Adenium Biotech A/S, priority 2005, published 2010).

Key:
[1] = system: panel of 6 different strains of Staphylococcus aureus; test: Average MIC, NCCLS/CLSI guidelines using caMHB (Example 6); type: cell-based; details: average over 6 S. aureus strains, duplicate; MIC above 32 counted as 64; read after 18-24 hours at 37° C.
Method: A large number of antimicrobial peptides of the invention were tested against a panel of 6 different strains of Staphylococcus aureus listed below:
Staphylococcus aureus, ATCC29213, MSSA, NCCLS reference strain; Staphylococcus aureus, ATCC25923, MSSA, NCCLS reference strain; Staphylococcus aureus, ATCC29737, MSSA; Staphylococcus aureus, E33235, MSSA; Staphylococcus aureus, 698-01, MRSA ST5, Str, Kan, Oxa; Staphylococcus aureus, 566-03, MRSA ST80, Oxa, Tet, Fus, Kan.
The staphylococci were exposed to the following peptide concentrations: 32; 16; 8; 4; 2; 1; 0.5; 0.25; 0.13; […]; and 0.03 microgram/mL. All peptides were purified, HPLC quantified and the concentrated peptides (>160 micrograms/mL) were diluted to 160 micrograms/mL in peptide dilution buffer (0.1% BSA, 0.01% Acetic Acid).
The MIC determination was done essentially as described by NCCLS/CLSI guidelines using caMHB. The MICs were read after 18-24 hours of 37° C. incubations and recorded along with the CFU in the table below.
A total number of 95 antimicrobial peptides of the invention were evaluated in duplicate against the 6 bacterial strains described above.
In the majority of the double determinations (93%), the MIC varied <2 fold. An average MIC is tabulated below. If the MIC was above 32 micrograms/mL, a value of 64 was used to calculate the average.

[2] = system: Staphylococcus carnosus ATCC51365; test: Yeast screening assay: radial diffusion assay of yeast supernatants; type: cell-based; set-up: key: An activity of 3 is better than Plectasin; An activity of 2 corresponds to the activity of Plectasin; 1 is worse than Plectasin; details: yeast supernatant, clearing zone in radial diffusion assay
How it was run: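 Activity scores (1 worse, 2 equal, 3 better than wild-type plectasin) come from the size of the radial-diffusion clearing zone against S. carnosus at 5×10^5 cfu/mL. Test samples were culture supernatants of yeast transformants induced with galactose for 3 days at 30 °C, and plates were developed at 37 °C with MTT.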

Row | Substance | Average MIC [1] | Activity (antimicrobial activity relative to the activity of plectasin) [2]
1 | D11G + N17I: antimicrobial peptide of the invention, Plectasin variant (GFGCNGPWDEGDMQCHIHCKSIKGYKGGYCAKGGFVCKCY) | 16 micrograms/mL | 
2 | GFGCAGPWDEDDMQCHNHCKSIKGYKGGYCAKGGFVCKCY [Mutation N5A] | 29 micrograms/mL | 3
3 | GFGCGGPWDEDDMQCHNHCKSIKGYKGGYCAKGGFVCKCY [Mutation N5G] | 24 micrograms/mL | 3
4 | GFGCNGPWDEDDMGCHNHCKSIKGYKGGYCAKGGFVCKCY [Mutation Q14G] | 18 micrograms/mL | 3
5 | GFGCNGPWDEDDMQCHNHCKSIKGYKGGYCAKGGFLCKCY [Mutation V36L] | 26 micrograms/mL | 3
6 | GFGCNGPWDEDDMQCHNHCKSIKGYKGGYCNKGGFVCKCY [Mutation A31N] | 9 micrograms/mL | 3
7 | GFGCNGPWDEDDMQCHSHCKSIRGYKGGYCAKGGFVCKCY [N17S + K23R] | 14 micrograms/mL | 2
8 | GFGCNGPWDEDDMSCHNHCKSIKGYKGGYCAKGGFVCKCY [Mutation Q14S] | 21 micrograms/mL | 3
9 | GFGCNGPWDEDDMVCHNHCKSIKGYRGGYCAKGGFVCKCY [Q14V + K26R] | 12 micrograms/mL | 3
10 | GFGCNGPWDEDDRQCHNHCKSIKGYKGGYCAKGGFVCKCY [Mutation M13R] | 9 micrograms/mL | 3
11 | GFGCNGPWDEDDSQCHNHCKSIKGYKGGYCAKGGFVCKCY [Mutation M13S] | 24 micrograms/mL | 3
12 | GFGCNGPWQEDDMQCHNHCKSIKGYKGGYCAKGGFVCKCY [Mutation D9Q] |  | 3
13 | GFGCNGPWREDDMQCHNHCKSIKGYKGGYCAKGGFVCKCY [Mutation D9R] |  | 2
14 | GFGCNGPWTEDDMQCHNHCKSIKGYKGGYCAKGGFVCKCY [Mutation D9T] |  | 3
15 | GFGCNGPWWEDDMQCHNHCKSIKGYKGGYCAKGGFVCKCY [Mutation D9W] |  | 2
16 | GFGCNGPWYEDDMQCHNHCKSIKGYKGGYCAKGGFVCKCY [Mutation D9Y] |  | 3
17 | GFGCNGRWDEDDMQCHNHCKSIKGYKGGYCAKGGFVCKCY [Mutation P7R] |  | 3
18 | GFGCNGVWDEDDMQCHNHCKSIKGYKGGYCAKGGFVCKCY [Mutation P7V] |  | 2
19 | GFGCNKPWDEDDMQCHNHCKSIKGYKGGYCAKGGFVCKCY [Mutation G6K] |  | 2
20 | GFGCNRPWDEDDMQCHNHCKSIKGYKGGYCAKGGFVCKCY [Mutation G6R] |  | 2
21 | GFGCQGPWDEDDMQCHNHCKSIKGYKGGYCAKGGFVCKCY [Mutation N5Q] |  | 3
22 | GFGCVGPWDEDDMQCHNHCKSIKGYKGGYCAKGGFVCKCY [Mutation N5V] |  | 3
23 | GIGCNGPWDEDDMQCHNHCKSIKGYKGGYCAKGGFVCKCY [Mutation F2I] |  | 2
24 | GLGCNGPWDEDDMQCHNHCKSIKGYKGGYCAKGGFVCKCY [Mutation F2L] |  | 2

Row | Substance | Average MIC [1] | Activity (antimicrobial activity relative to the activity of plectasin) [2]
25 | GWGCNGPWDEDDMQCHNHCKSIKGYKGGYCAKGGFVCKCY [Mutation F2W] |  | 2
26 | K26C + Y40YRCG: antimicrobial peptide of the invention, Plectasin variant (GFGCNGPWDEDDMQCHNHCKSIKGYCGGYCAKGGFVCKCYRCG) | 11 micrograms/mL | 
27 | M13A + Q14K + K26R: antimicrobial peptide of the invention, Plectasin variant (GFGCNGPWDEDDAKCHNHCKSIKGYRGGYCAKGGFVCKCY) | 9 micrograms/mL | 
28 | M13R + Q14K + K26R: antimicrobial peptide of the invention, Plectasin variant (GFGCNGPWDEDDRKCHNHCKSIKGYRGGYCAKGGFVCKCY) | 5 micrograms/mL | 
29 | M13S + Q14K + K26R: antimicrobial peptide of the invention, Plectasin variant (GFGCNGPWDEDDSKCHNHCKSIKGYRGGYCAKGGFVCKCY; Synthetic antimicrobial polypeptide) | 15 micrograms/mL | 
30 | N5D + D9S + Q14R: antimicrobial peptide of the invention, Plectasin variant (GFGCDGPWSEDDMRCHNHCKSIKGYKGGYCAKGGFVCKCY) | 16 micrograms/mL | 
31 | N5G + D9A + Q14S + K23T + A31T: antimicrobial peptide of the invention, Plectasin variant (GFGCGGPWAEDDMSCHNHCKSITGYKGGYCTKGGFVCKCY) | 14 micrograms/mL | 
32 | N5G + M13W + N17S: antimicrobial peptide of the invention, Plectasin variant (GFGCGGPWDEDDWQCHSHCKSIKGYKGGYCAKGGFVCKCY) | 10 micrograms/mL | 
33 | N5G + M13W: antimicrobial peptide of the invention, Plectasin variant (GFGCGGPWDEDDWQCHNHCKSIKGYKGGYCAKGGFVCKCY) | 9 micrograms/mL | 
34 | N5H + M13E + N17E: antimicrobial peptide of the invention, Plectasin variant (GFGCHGPWDEDDEQCHEHCKSIKGYKGGYCAKGGFVCKCY) | 12 micrograms/mL | 
35 | N5K + M13L: antimicrobial peptide of the invention, Plectasin variant (GFGCKGPWDEDDLQCHNHCKSIKGYKGGYCAKGGFVCKCY) | 9 micrograms/mL | 
36 | N5S + M13V + N17A: antimicrobial peptide of the invention, Plectasin variant (GFGCSGPWDEDDVQCHAHCKSIKGYKGGYCAKGGFVCKCY) | 18 micrograms/mL | 
37 | N5S + M13V + N17T: antimicrobial peptide of the invention, Plectasin variant (GFGCSGPWDEDDVQCHTHCKSIKGYKGGYCAKGGFVCKCY) | 16 micrograms/mL | 
38 | N17A: antimicrobial peptide of the invention, Plectasin variant (GFGCNGPWDEDDMQCHAHCKSIKGYKGGYCAKGGFVCKCY) [Mutation N17A] | 15 micrograms/mL | 
39 | N17F: antimicrobial peptide of the invention, Plectasin variant (GFGCNGPWDEDDMQCHFHCKSIKGYKGGYCAKGGFVCKCY) [Mutation N17F] | 12 micrograms/mL | 
40 | N17K + K32R: antimicrobial peptide of the invention, Plectasin variant (GFGCNGPWDEDDMQCHKHCKSIKGYKGGYCARGGFVCKCY) | 7 micrograms/mL | 
41 | N17K: antimicrobial peptide of the invention, Plectasin variant (GFGCNGPWDEDDMQCHKHCKSIKGYKGGYCAKGGFVCKCY) [Mutation N17K] | 11 micrograms/mL | 
42 | N17R + Y25R: antimicrobial peptide of the invention, Plectasin variant (GFGCNGPWDEDDMQCHRHCKSIKGRKGGYCAKGGFVCKCY) | 18 micrograms/mL | 
43 | N17S: antimicrobial peptide of the invention, Plectasin variant (GFGCNGPWDEDDMQCHSHCKSIKGYKGGYCAKGGFVCKCY) [Mutation N17S] | 14 micrograms/mL | 
44 | N17T: antimicrobial peptide of the invention, Plectasin variant (GFGCNGPWDEDDMQCHTHCKSIKGYKGGYCAKGGFVCKCY) [Mutation N17T] | 21 micrograms/mL | 
45 | S21A: antimicrobial peptide of the invention, Plectasin variant (GFGCNGPWDEDDMQCHNHCKAIKGYKGGYCAKGGFVCKCY) [Mutation S21A] | 17 micrograms/mL | 
46 | S21N: antimicrobial peptide of the invention, Plectasin variant (GFGCNGPWDEDDMQCHNHCKNIKGYKGGYCAKGGFVCKCY) [Mutation S21N] | 11 micrograms/mL | 
47 | S21V: antimicrobial peptide of the invention, Plectasin variant (GFGCNGPWDEDDMQCHNHCKVIKGYKGGYCAKGGFVCKCY) [Mutation S21V] | 26 micrograms/mL | 
